Measured values taken from the supplement of paper PMC10733146.

How the values were obtained:
Assay in all cases: viability relative to DMSO control (fraction); higher = less drug effect (more viable cells)
Conditions in all cases: 48 h
[1] = system: primary DLBCL patient cells (S076)
Procedure, shortened: (§1)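 Viability is given as CellTiter-Glo luminescence relative to the median of 16 inner DMSO wells. Fresh or cryopreserved primary mononuclear tumour cells from blood, bone marrow (both Ficoll-isolated) or processed lymph node were plated at 4 × 10^4 cells per well in 384-well plates against five pre-plated compound concentrations, one well each. Incubation lasted 48 h at 37 °C and 5% CO2 in RPMI-1640 with penicillin/streptomycin, L-glutamine and human serum.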

[2] = system: primary AML patient cells (S072)
Procedure, shortened: as §1

[3] = system: primary AML patient cells (S071)
Procedure, shortened: as §1

[4] = system: primary AML patient cells (S037)
Procedure, shortened: as §1

[5] = system: primary T-NHL patient cells (S058)
Procedure, shortened: as §1

[6] = system: primary MCL patient cells (S041)
Procedure, shortened: as §1

[7] = system: primary AML patient cells (S025)
Procedure, shortened: as §1

[8] = system: primary AML patient cells (S019)
Procedure, shortened: as §1

[9] = system: primary AML patient cells (S091)
Procedure, shortened: as §1

[10] = system: primary AML patient cells (S002)
Procedure, shortened: as §1

[11] = system: primary DLBCL patient cells (S082)
Procedure, shortened: as §1

[12] = system: primary AML patient cells (S089)
Procedure, shortened: as §1

[13] = system: primary AML patient cells (S055)
Procedure, shortened: as §1

[14] = system: primary AML patient cells (S009)
Procedure, shortened: as §1

[15] = system: primary DLBCL patient cells (S049)
Procedure, shortened: as §1

[16] = system: primary T-PLL patient cells (S008)
Procedure, shortened: as §1

[17] = system: primary AML patient cells (S079)
Procedure, shortened: as §1

O=C(c1cc(Cc2n[nH]c(=O)c3ccccc23)ccc1F)N1CCN(C(=O)C2CC2)CC1 [Olaparib]
viability ([1]; 0.024 µM): 0.91 | viability ([1]; 0.12 µM): 1.05 | viability ([1]; 0.6 µM): 1.12 | viability ([1]; 3 µM): 1 | viability ([1]; 15 µM): 0.955 | viability ([2]; 0.024 µM): 0.829 | viability ([2]; 0.12 µM): 0.891 | viability ([2]; 0.6 µM): 0.914 | viability ([2]; 3 µM): 0.885 | viability ([2]; 15 µM): 0.852 | viability ([3]; 0.024 µM): 0.974 | viability ([3]; 0.12 µM): 1.01 | viability ([3]; 0.6 µM): 1.02 | viability ([3]; 3 µM): 0.917 | viability ([3]; 15 µM): 0.806 | viability ([4]; 0.024 µM): 0.853 | viability ([4]; 0.12 µM): 0.895 | viability ([4]; 0.6 µM): 0.915 | viability ([4]; 3 µM): 0.859 | viability ([4]; 15 µM): 0.776 | viability ([5]; 0.024 µM): 1.09 | viability ([5]; 0.12 µM): 1.11 | viability ([5]; 0.6 µM): 1.18 | viability ([5]; 3 µM): 1.13 | viability ([5]; 15 µM): 0.999 | viability ([6]; 0.024 µM): 0.845 | viability ([6]; 0.12 µM): 0.889 | viability ([6]; 0.6 µM): 0.93 | viability ([6]; 3 µM): 0.933 | viability ([6]; 15 µM): 0.895 | viability ([7]; 0.024 µM): 0.995 | viability ([7]; 0.12 µM): 0.973 | viability ([7]; 0.6 µM): 0.95 | viability ([7]; 3 µM): 1.01 | viability ([7]; 15 µM): 0.861 | viability ([8]; 0.024 µM): 0.851 | viability ([8]; 0.12 µM): 0.939 | viability ([8]; 0.6 µM): 0.91 | viability ([8]; 3 µM): 0.889 | viability ([8]; 15 µM): 0.893 | viability ([9]; 0.024 µM): 0.857 | viability ([9]; 0.12 µM): 0.796 | viability ([9]; 0.6 µM): 0.883 | viability ([9]; 3 µM): 0.862 | viability ([9]; 15 µM): 0.691 | viability ([10]; 0.024 µM): 0.804 | viability ([10]; 0.12 µM): 1.05 | viability ([10]; 0.6 µM): 0.935 | viability ([10]; 3 µM): 0.804 | viability ([10]; 15 µM): 0.748 | viability ([11]; 0.024 µM): 0.835 | viability ([11]; 0.12 µM): 0.887 | viability ([11]; 0.6 µM): 0.878 | viability ([11]; 3 µM): 0.817 | viability ([11]; 15 µM): 0.718 | viability ([12]; 0.024 µM): 0.959 | viability ([12]; 0.12 µM): 0.82 | viability ([12]; 0.6 µM): 0.883 | viability ([12]; 3 µM): 0.63 | viability ([12]; 15 µM): 0.814 | viability ([13]; 0.024 µM): 0.937 | viability ([13]; 0.12 µM): 0.899 | viability ([13]; 0.6 µM): 0.91 | viability ([13]; 3 µM): 0.965 | viability ([13]; 15 µM): 0.919 | viability ([14]; 0.024 µM): 0.977 | viability ([14]; 0.12 µM): 0.987 | viability ([14]; 0.6 µM): 1.02 | viability ([14]; 3 µM): 0.93 | viability ([14]; 15 µM): 0.958 | viability ([15]; 0.024 µM): 0.857 | viability ([15]; 0.12 µM): 0.937 | viability ([15]; 0.6 µM): 0.92 | viability ([15]; 3 µM): 0.894 | viability ([15]; 15 µM): 0.735 | viability ([16]; 0.024 µM): 0.945 | viability ([16]; 0.12 µM): 0.962 | viability ([16]; 0.6 µM): 0.957 | viability ([16]; 3 µM): 0.978 | viability ([16]; 15 µM): 0.94 | viability ([17]; 0.024 µM): 0.828 | viability ([17]; 0.12 µM): 0.844 | viability ([17]; 0.6 µM): 0.898 | viability ([17]; 3 µM): 0.893 | viability ([17]; 15 µM): 0.815

Oc1ccc(/C=C/c2cc(O)cc(O)c2)cc1 [Resveratrol]
viability ([1]; 0.024 µM): 0.961 | viability ([1]; 0.12 µM): 0.963 | viability ([1]; 0.6 µM): 0.955 | viability ([1]; 3 µM): 0.94 | viability ([1]; 15 µM): 0.882 | viability ([2]; 0.024 µM): 1.07 | viability ([2]; 0.12 µM): 0.797 | viability ([2]; 0.6 µM): 0.816 | viability ([2]; 3 µM): 0.798 | viability ([2]; 15 µM): 0.687 | viability ([3]; 0.024 µM): 0.774 | viability ([3]; 0.12 µM): 0.734 | viability ([3]; 0.6 µM): 0.732 | viability ([3]; 3 µM): 0.688 | viability ([3]; 15 µM): 0.591 | viability ([4]; 0.024 µM): 0.792 | viability ([4]; 0.12 µM): 0.994 | viability ([4]; 0.6 µM): 0.881 | viability ([4]; 3 µM): 0.84 | viability ([4]; 15 µM): 0.96 | viability ([5]; 0.024 µM): 0.917 | viability ([5]; 0.12 µM): 0.998 | viability ([5]; 0.6 µM): 0.957 | viability ([5]; 3 µM): 0.895 | viability ([5]; 15 µM): 0.948 | viability ([6]; 0.024 µM): 0.948 | viability ([6]; 0.12 µM): 0.904 | viability ([6]; 0.6 µM): 0.904 | viability ([6]; 3 µM): 0.896 | viability ([6]; 15 µM): 0.77 | viability ([7]; 0.024 µM): 0.933 | viability ([7]; 0.12 µM): 0.921 | viability ([7]; 0.6 µM): 0.883 | viability ([7]; 3 µM): 0.891 | viability ([7]; 15 µM): 0.758 | viability ([8]; 0.024 µM): 0.879 | viability ([8]; 0.12 µM): 0.928 | viability ([8]; 0.6 µM): 1 | viability ([8]; 3 µM): 0.918 | viability ([8]; 15 µM): 0.924 | viability ([9]; 0.024 µM): 0.863 | viability ([9]; 0.12 µM): 0.832 | viability ([9]; 0.6 µM): 0.868 | viability ([9]; 3 µM): 0.708 | viability ([9]; 15 µM): 0.553 | viability ([10]; 0.024 µM): 0.873 | viability ([10]; 0.12 µM): 0.932 | viability ([10]; 0.6 µM): 0.894 | viability ([10]; 3 µM): 0.796 | viability ([10]; 15 µM): 0.604 | viability ([11]; 0.024 µM): 0.79 | viability ([11]; 0.12 µM): 0.776 | viability ([11]; 0.6 µM): 0.828 | viability ([11]; 3 µM): 0.871 | viability ([11]; 15 µM): 0.954 | viability ([12]; 0.024 µM): 0.819 | viability ([12]; 0.12 µM): 0.652 | viability ([12]; 0.6 µM): 0.672 | viability ([12]; 3 µM): 0.53 | viability ([12]; 15 µM): 0.549 | viability ([13]; 0.024 µM): 0.867 | viability ([13]; 0.12 µM): 0.931 | viability ([13]; 0.6 µM): 0.888 | viability ([13]; 3 µM): 0.83 | viability ([13]; 15 µM): 0.851 | viability ([14]; 0.024 µM): 0.782 | viability ([14]; 0.12 µM): 0.815 | viability ([14]; 0.6 µM): 0.815 | viability ([14]; 3 µM): 0.789 | viability ([14]; 15 µM): 0.683 | viability ([15]; 0.024 µM): 0.849 | viability ([15]; 0.12 µM): 0.846 | viability ([15]; 0.6 µM): 0.826 | viability ([15]; 3 µM): 0.732 | viability ([15]; 15 µM): 0.711 | viability ([16]; 0.024 µM): 1 | viability ([16]; 0.12 µM): 1.02 | viability ([16]; 0.6 µM): 0.915 | viability ([16]; 3 µM): 0.966 | viability ([16]; 15 µM): 0.897 | viability ([17]; 0.024 µM): 0.838 | viability ([17]; 0.12 µM): 0.767 | viability ([17]; 0.6 µM): 0.792 | viability ([17]; 3 µM): 0.718 | viability ([17]; 15 µM): 0.736
